US7608726B2, “Substituted indolepyridinium as anti-infective compounds” (Tibotec Pharmaceuticals Ltd., priority 2002, dated 2009)

Assays:
[1] = test system: HIV mutant A (Y181C); assay: Antiviral cellular assay, mutant HIV strain A; type: cell-based; details: EC50 mutant/EC50 wild type, rounded to nearest integer
Protocol: (§1) HIV- or mock-infected MT4 cells were incubated for five days in the presence of various concentrations of the inhibitor. At the end of the incubation period, the replicating virus in the control cultures has killed all HIV-infected cells in the absence of any inhibitor. Cell viability was determined by measuring the concentration of MTT, a yellow, water soluble tetrazolium dye that is converted to a purple, water insoluble formazan in the mitochondria of living cells only. Upon solubilization of the resulting formazan crystals with isopropanol, the absorbance of the solution was monitored at 540 nm. The values correlate directly to the number of living cells remaining in the culture at the completion of the five day incubation. The inhibitory activity of the compound was monitored on the virus-infected cells and was expressed as EC50 and EC90. These values represent the amount of the compound required to protect 50% and 90%, respectively, of the cells from the cytopathogenic effect of the virus. […] Wherever results are reported as e.g. pEC50 or pCC50 values, the result is expressed as the negative logarithm of the result expressed as EC50 or CC50 respectively. […]
(§2) Row WT: pEC50 against wild type HIV-LAI strain. The toxicity (Tox) is expressed as the pCC50 value as determined with mock transfected cells. ND means not determined.

[2] = test system: HIV mutant B (K103N); assay: Antiviral cellular assay, mutant HIV strain B; type: cell-based; details: EC50 mutant/EC50 wild type, rounded to nearest integer
Protocol: as §1, §2

[3] = test system: HIV mutant C (L100I; K103N); assay: Antiviral cellular assay, mutant HIV strain C; type: cell-based; details: EC50 mutant/EC50 wild type, rounded to nearest integer
Protocol: as §1, §2

[4] = test system: HIV mutant D (L100I; K103N); assay: Antiviral cellular assay, mutant HIV strain D; type: cell-based; details: EC50 mutant/EC50 wild type, rounded to nearest integer
Protocol: as §1, §2

[5] = test system: HIV mutant E (F227C); assay: Antiviral cellular assay, mutant HIV strain E; type: cell-based; details: EC50 mutant/EC50 wild type, rounded to nearest integer
Protocol: as §1, §2

[6] = test system: HIV mutant F (Y188L); assay: Antiviral cellular assay, mutant HIV strain F; type: cell-based; details: EC50 mutant/EC50 wild type, rounded to nearest integer
Protocol: as §1, §2

[7] = test system: HIV mutant G (V106A, F227L); assay: Antiviral cellular assay, mutant HIV strain G; type: cell-based; details: EC50 mutant/EC50 wild type, rounded to nearest integer
Protocol: as §1, §2

[8] = test system: HIV mutant H (K103N, Y181C); assay: Antiviral cellular assay, mutant HIV strain H; type: cell-based; details: EC50 mutant/EC50 wild type, rounded to nearest integer
Protocol: as §1, §2

[9] = test system: HIV mutant I (K101E, K103N); assay: Antiviral cellular assay, mutant HIV strain I; type: cell-based; details: EC50 mutant/EC50 wild type, rounded to nearest integer
Protocol: as §1, §2

[10] = test system: HIV mutant J (131L, L100I, K103N, E138G, Y181C, L214F); assay: Antiviral cellular assay, mutant HIV strain J; type: cell-based; details: EC50 mutant/EC50 wild type, rounded to nearest integer
Protocol: as §1, §2

[11] = test system: HIV mutant K (multiple RT mutations, Table 1); assay: Antiviral cellular assay, mutant HIV strain K; type: cell-based; details: EC50 mutant/EC50 wild type, rounded to nearest integer
Protocol: as §1, §2

[12] = test system: HIV-2; assay: Antiviral cellular assay, HIV-2; type: cell-based; details: Human immunodeficiency virus 2; read-out: pEC50 towards HIV-2 (converted)
Protocol: HIV- or mock-infected MT4 cells were incubated for five days in the presence of various concentrations of the inhibitor. At the end of the incubation period, the replicating virus in the control cultures has killed all HIV-infected cells in the absence of any inhibitor. Cell viability was determined by measuring the concentration of MTT, a yellow, water soluble tetrazolium dye that is converted to a purple, water insoluble formazan in the mitochondria of living cells only. Upon solubilization of the resulting formazan crystals with isopropanol, the absorbance of the solution was monitored at 540 nm. The values correlate directly to the number of living cells remaining in the culture at the completion of the five day incubation. The inhibitory activity of the compound was monitored on the virus-infected cells and was expressed as EC50 and EC90. These values represent the amount of the compound required to protect 50% and 90%, respectively, of the cells from the cytopathogenic effect of the virus. […] Wherever results are reported as e.g. pEC50 or pCC50 values, the result is expressed as the negative logarithm of the result expressed as EC50 or CC50 respectively.
as §2

[13] = test system: SIV (simian immunodeficiency virus); assay: Antiviral cellular assay, SIV; type: cell-based; details: read-out: pEC50 towards SIV (converted)
[14] = test system: Mycobacterium b.; assay: Specificity versus non-viral pathogens: Mycobacterium b.; type: cell-based
[15] = test system: HIV-1 strain LAI in MT4 cells; assay: Time of addition experiment (p24 ELISA); type: cell-based; details: 50 μM, MT4 cells infected with HIV-1 LAI
Protocol: A time of addition experiment was performed to determine the mechanism of action of the compounds of the present invention. In the time of addition experiment, compounds are added to cells that were infected with HIV, at time zero (Zero hours). The compounds are subsequently added at different points in time. The time point until which a compound can be added to prevent virus replication, provides an indication of the mechanism of action of the compound.
In the present experiment, MT4 cells were infected with HIV-1 strain LAI at time zero. In different experiments, compounds were subsequently added at the points in time indicated in the X-axis of FIG. 1 (in hours). The compounds were added at the following end concentrations during incubation: DS5000, 1 μM; efavirenz (EFV), 1 μM; saquinavir (SQV), 1 μM; Reference 1, 10 μM (Reference 1 is an integrase inhibitor selected from WO 99/62520 and is present in CAS database: 251963-93-6); Compound 2, 50 μM; Control: normalized virus production. The virus production was determined using p24 monitoring using a kit according to the manufacturers instructions (p24 ELISA kit, catalog reference NEK-050, Perkin Elmer).

[16] = molecular target: T1, HIV reverse transcriptase (Human immunodeficiency virus type 1 group M subtype B, UniProt P04585); assay: In vitro inhibition of HIV reverse transcriptase (kit TRK 1022); type: biochemical; details: enzyme assay, 4 hours at 37° C.
T1 construct: 5 μl HIV RT enzyme solution; purchased Amersham Life Sciences TRK 1022
Protocol: The assay was run using kit TRK 1022 (Amersham Life Sciences) according to the manufacturer's instructions with slight modifications. Compounds were diluted in steps of ¼ in 100% DMSO and subsequently transferred to Medium A (1/50 dilution; medium A: RPMI 1640+10% FetalClone II+Gentamycin 20 mg/L). 25 μl of compound (in 2% DMSO in Medium A) or 25 μl of 2% DMSO in medium A was added to wells. To each well was added 25.5 μl master mix (master mix: 5 μl primer/template beads, 10 μl assay buffer, 0.5 μl tracer (3H-TTP), 5 μl HIV RT enzyme solution at a final enzyme activity of 15 mU per 50 μl reaction, 5 μl medium A). The plates were sealed, marked as radioactive and incubated during 4 hours at 37° C. Subsequently, 100 μl stop solution was added to each well (except R1). The radioactivity was counted in a TopCount.

[17] = Microsomal metabolization, dog liver microsomes; type: in vitro ADME; details: 10 μM, LC-MS
[18] = Microsomal metabolization, human liver microsomes; type: in vitro ADME
Protocol: Aliquots of human liver microsomal fractions (prepared by centrifugation at 12000 g^−1) were transferred into 10 ml glass tubes that are immersed in ice. Subsequently, test compound was added to yield a final concentration of 10 μM test compound. After adding 500 μl of a co-factor solution (cofactor solution: 1 mg/ml glucose-6-phosphate, 1 mg/ml MgCl2.6H2O, 0.5 units/ml glucose-6-phosphate dehydrogenase in 0.5 M phohsphate buffer. pH 7.4), homogenisation buffer (homogenisation buffer: 1,15% KCl in 0.05 M phosphate buffer, pH 7.4) was added to give a final volume of 1 ml. The incubations, 30 or 120 minutes at 37° C., were initiated by adding 10 μl of a solution of nicontinamide adenine dinucleotide phosphate (1.25 mg/ml) in homogenisation buffer. After a preincubation during 5 minutes at 37° C., the tubes were continuously shaken at 100 oscillations/minute in a water bath. The reactions were terminated by addition of an equal volume of DMSO. Blank incubations containing boiled microsomal fractions were incubated under the same conditions as the drug incubations. The degree of metabolism was determined by direct measurement of the residual parent compound in the reaction mixture using LC-MS. In parallel, the residual anti-HIV activity in the reaction mixture was detected using a colorimetric anti-HIV assay as described in Pauwels et al. J. Virol. Methods 1988 (20) 309-321. The residual activity is defined as the percent difference in EC50 between the drug incubations and the blank incubations.
The amount of compound was determined using LC-MS at the time points indicated between brackets. The results are indicated as a % vis-à-vis the amount determined at the start of the experiment (time=0; normalized to 100%).

[19] = test system: wild type HIV-LAI strain; assay: Antiviral cellular assay (MT4 cells, MTT), wild type HIV-1 strain LAI; type: cell-based; details: Human immunodeficiency virus 1, MT4; read-out: EC50, inhibition of wild-type HIV-LAI strain
Protocol: The compounds of the present invention were examined for anti-viral activity in a cellular assay. […] The cellular assay was performed according to the following procedure.
HIV- or mock-infected MT4 cells were incubated for five days in the presence of various concentrations of the inhibitor. At the end of the incubation period, the replicating virus in the control cultures has killed all HIV-infected cells in the absence of any inhibitor. Cell viability was determined by measuring the concentration of MTT, a yellow, water soluble tetrazolium dye that is converted to a purple, water insoluble formazan in the mitochondria of living cells only. Upon solubilization of the resulting formazan crystals with isopropanol, the absorbance of the solution was monitored at 540 nm. The values correlate directly to the number of living cells remaining in the culture at the completion of the five day incubation. The inhibitory activity of the compound was monitored on the virus-infected cells and was expressed as EC50 and EC90. These values represent the amount of the compound required to protect 50% and 90%, respectively, of the cells from the cytopathogenic effect of the virus. The toxicity of the compound was measured on the mock-infected cells and was expressed as CC50, which represents the concentration of compound required to inhibit the growth of the cells by 50%. The selectivity index (SI) (ratio CC50/EC50) is an indication of the selectivity of the anti-HIV activity of the inhibitor. Wherever results are reported as e.g. pEC50 or pCC50 values, the result is expressed as the negative logarithm of the result expressed as EC50 or CC50 respectively.
As a measure of the broad spectrum activity of the present compounds, the EC50 was determined. […] The fold resistance rounded to the nearest integer is mentioned between brackets.
as §2

SMILES: Cn1c2ccccc2c2c1cc(C#N)c(=O)n2-c1ccc([N+](=O)[O-])cc1 [Compound 2, 5-methyl-1-(4-nitro-phenyl)-2-oxo-2,5-dihydro-1H-pyrido[3,2-b]indole-3-carbonitrile]
- fold resistance mutant A (between brackets) [1]: 4
- fold resistance mutant B (between brackets) [2]: 1
- fold resistance mutant C (between brackets) [3]: 3
- fold resistance mutant D (between brackets) [4]: 2
- fold resistance mutant E (between brackets) [5]: 3
- fold resistance mutant F (between brackets) [6]: 2
- fold resistance mutant G (between brackets) [7]: 3
- fold resistance mutant H (between brackets) [8]: 5
- fold resistance mutant I (between brackets) [9]: 3
- fold resistance mutant J (between brackets) [10]: 5
- fold resistance mutant K (between brackets) [11]: 4
- EC50 [12]: 251 nM
- EC50 [13]: 316 nM
- EC50 [14]: > 32000 nM
- time of addition: effect on virus production / mechanism [15]: delayed virus production using a mechanism related to reverse transcriptase
- in vitro inhibition of HIV reverse transcriptase [16]: inhibits HIV reverse transcriptase in vitro
- DLM (0 min) amount of compound ([17]; 0 min, normalized to 100% at time 0): 100%
- DLM (30 min) amount of compound ([17]; 30 min, % of amount at time 0): 91%
- DLM (120 min) amount of compound ([17]; 120 min, % of amount at time 0): 108%
- HLM (0 min) amount of compound ([18]; 10 μM, 0 min, LC-MS, normalized to 100% at time 0): 100%
- HLM (30 min) amount of compound ([18]; 10 μM, 30 min, LC-MS, % of amount at time 0): 98%
- HLM (120 min) amount of compound ([18]; 10 μM, 120 min, LC-MS, % of amount at time 0): 128%
- hepatic first pass metabolization (microsomal) ([18]; liver microsomal fractions): little or no hepatic first pass metabolization

SMILES: Cn1c2ccccc2c2c1cc(C(N)=O)c(=O)n2-c1ccc([N+](=O)[O-])cc1 [Compound 76]
- EC50 [19]: 1000 to 32000 nM

SMILES: Cn1c2ccccc2c2c1cc(-c1noc(C(F)(F)F)n1)c(=O)n2-c1ccc([N+](=O)[O-])cc1 [Compound 72, 5-Methyl-1-(4-nitro-phenyl)-3-(5-trifluoromethyl-[1,2,4]oxadiazol-3-yl)-1,5-dihydropyrido[3,2-b]indol-2-one]
- EC50 [19]: < 1000 nM
